Assay results from US20070009571A1, “Novel haptotactic peptides” (Hadasit Medical Research Services & Development Ltd., priority 1998, published 2007).
“Also recorded” adds a separate entry of the source. No end group written: not given here.

B1: γ chain: isolated γ chain of fibrinogen (protein, UniProt P02679 27-453, looked up)
Fibrinogen gamma chain: YVATRDNCCILDERFGSYCPTTCGIADFLSTYQTKVDKDLQSLEDILHQVENKTSEVKQLIKAIQLTYNPDESSKPNMIDAATLKSRKMLEEIMKYEASILTHDSSIRYLQEIYNSNNQKIVNLKEKVAQLEAQCQEPCKDTVQIHDITGKDCQDIANKGAKQSGLYFIKPLKANQQFLVYCEIDGSGNGWTVFQKRLDGSVDFKKNWIQYKEGFGHLSPTGTTEFWLGNEKIHLISTQSAIPYALRVELEDWNGRTSTADYAMFKVGPEADKYRLTYAYFAGGDAGDAFDGFDFGDDPSDKFFTSHNGMQFSTWDNDNDKFEGNCAEQDGSGWWMNKCHAGHLNGVYYQGGTYSKASTPNGYDNGIIWATWKTRWYSMKKTTMKIIPFNRLTIGEGQQHHLGGAKQVRPEHPAETEYDSLYPEDDL
modifications: Fibrinogen gamma chain
notes: isolated γ chain of fibrinogen

Columns and labels:
[1] = system: bovine aortic endothelial cells (EC, BAEC); assay: Haptotaxis assay: attachment of ligand-coated SB to cultured cells; format: cell-based
Protocol: (§1) Peptides or fibrinogen were covalently bound to CNBr activated sepharose beads (SB) (Pharmacia, Piscataway, N.J.) using techniques previously used to bind albumin, fibrinogen and thrombin. Briefly, CNBr-activated sepharose 4B (Pharmacia) was washed with 1N HCl, and suspended in the coupling buffer (pH 8.3), following the protocol supplied by the manufacturer. The peptides were dialyzed against the coupling buffer to remove Tris. Peptides (1 mg) were not highly water soluble. The peptides were dissolved in 1 mL 70% ethanol or dimethylformamide, and were then mixed into the coupling buffer containing 1 mL CNBr-activated sepharose. The suspension was gently agitated overnight, then centrifuged 500×g to pack the beads. This procedure covalently binds more than 95% of proteins or peptides including fibrinogen or peptides-CαE (SEQ ID NO:3), Cβ (SEQ ID NO:1) and preCγ (SEQ ID NO:2) to the beads determined by Abs280 readings of the solutions.
(§2) The migratory/adhesion response of cells to proteins (such as fibrinogen) or peptides covalently bound to SB was measured as follows. Cells were grown in 6 or 12 well plates to near confluence or in suspension until they covered about ½ to ⅔ of the plate surface. At that point, about […] of a suspension containing 50% v/v SB coated with the test protein or peptide were added to the plate and dispersed by gentle shaking for 1 min. The plate was then returned to the incubator and examined at different times by inverted phase microscopy.
(§3) The SB (naked or ligand bound) sedimented onto the nearly confluent cell layer and occasionally made physical contact with cell membranes on the plate (ascribed to Brownian motion or micro-convection currents). […] Typically, 300 beads (but not less then 200) were counted in each well and the ratio of SB bound to the cells relative to total number SB could be calculated (SB bound/SB total). Counting the percentage of SB attached to the cell surface at different time intervals provided a quantitative assay of the kinetics of the attachment of coated beads to cells. Negative control with uncoated SB or positive controls with SB-fibrinogen were employed with at least 3 wells measured for each. The statistical error was calculated from the square root of the total counts.
(§4) The peptides of the present invention were synthesized and tested in cell culture systems as described above. Essentially, peptides were covalently attached to sepharose beads to form SB-Cα (SEQ ID NO:4), SB-Cβ (SEQ ID NO:1), SB-PreCγ (SEQ ID NO:2), SB-Cγ (SEQ ID NO:5) and SB-CαE (SEQ ID NO:3), respectively, as was fibrinogen to form SB-Fib. The SB-peptide combination was then incubated with cultured cells. […] The haptotactic potency of the peptides is summarized in Table 3 with the percentage of SB-Fib/peptide attached to cells (by day 4) given in columns 2-5 of Table 3.

[2] = system: tested cell lines; assay: Haptotaxis assay, statements over the tested cell lines; format: cell-based; conditions: ligands covalently bound to SB, near confluent cell cultures
Protocol: as §1, §2, §3, §4

[3] = system: HF; assay: Cell proliferation, MTS assay; format: cell-based, human; conditions: 0.4 nM-4 μM, 96 well plates
Protocol: Cell proliferation was evaluated by measuring cell density as a function of time by two different colorimetric assays. The MTS colorimetric assay (CellTitre 96 Aqueous Assay by Promega) is based on dehydrogenase conversion of MTS (methyl tetrazolium salt) by viable cells to […] (Ge M. Tang, G., Ryan. T. J. and Malik. A. B., “Fibrinogen degradation product fragment D induces endothelial cell detachment by activation of cell-mediated fibrinolysis”, J. Clin. Inves., 90:2508-2516 (1992)); the methylene blue (MB) assay is based on the staining of monolayer cells after their fixation, and reading the absorbence of the absorbed dye.
The MTS assay for viable cells was performed as follows: 30 μL of freshly prepared MTS/PMS were added to each well; following 2 hrs incubation at 37° C., the plates were placed on a computer driven microplate reader (Anthos HT-II, Salzburg, Austria), programmed to shake the plate for 1 minute before reading the optical density (OD) of the dye at 490 nm. The measurements were repeated following 4 and 6 hours of incubation.
Peptides (Cα (SEQ ID NO:4), […], PreCγ (SEQ ID NO:2) and CαE (SEQ ID NO:3)), up to 1 μg/mL or 100 μg/mL fibrinogen or thrombin (final concentrations) were added to the culture medium and cell numbers were assayed by day 3 using the MTS assay. The change in cell number was compared with that observed versus saline control. Of the 5 peptides tested at dosages up to 10 μg/mL (approximately equimolar to 1 μg/mL fibrinogen), none of the peptides exerted significant effect on cell proliferation (FIG. 7).

[4] = system: EC cells (BAEC); assay: FACS analysis of binding of FITC-labeled peptides; format: cell-based, bovine; conditions: 10 μg/ml or 100 μg/ml, medium with 0.1% albumin
Protocol: (§5) EC and HF cell monolayers were washed and then incubated with trypsin-versene. Cells were then washed with growth medium and resuspended in medium with 0.1% albumin. FITC-labeled peptide-Cβ (SEQ ID NO:1) was incubated with 5×10^5 EC cells (10 μg/ml or 100 μg/ml) or with 2.5×10^5 HF cells (100 μg/ml) in medium with 0.1% albumin. FITC-labeled peptide-CαE (SEQ ID NO:3) and Cα (SEQ ID NO:4) (10 μg/ml) was incubated with 5×10^5 EC cells in medium with 0.1% albumin. Cells were then washed with PBS and 1% albumin. Cells were resuspended in PBS and 1% albumin and then filtered through a mesh for FACS analysis, in which the FITC tluorescence was measured for each cell.
(§6) The control is without FITC-labeled peptide (background fluorescence).
(§7) In competition experiments, cells were incubated with various concentrations of unlabeled Cβ (SEQ ID NO:1) for 15 mins, an aliquot of Cβ^FITC (4 mM) was added and the sample was subjected to FACS analysis. […] The Cβ^FITC (SEQ ID NO:1) uptake experiments best fitted a linear-quadratic curve-fit.

[5] = system: HF cells; assay: FACS analysis of binding of FITC-labeled peptides; format: cell-based, human; conditions: 100 μg/ml, medium with 0.1% albumin
Protocol: as §5, §6, §7

[6] = system: cells such as HF or BAEC; assay: FACS competition and uptake experiments with Cβ-FITC; format: cell-based; design: dose or concentration left out as unconfirmed; conditions: preincubation with unlabeled Cβ for 15 mins
Protocol: as §7

[7] = system: BAEC; assay: Chemotaxis, micro-Boyden chamber assay; format: cell-based, bovine; conditions: up to 40 μg/ml
Protocol: (§8) Chemotaxis was evaluated using 48-well plastic Microtaxis micro-Boyden chambers. Polycarbonate filters with pore size of 8 μm were coated with fibronectin for 2 hours at 37° C. Conditioned medium from 3T3 cells served as a positive control. Test solution (26 μl) containing the tested peptides or protein or medium with no additions that served as control were placed in the lower chamber, covered with the filter. 50 μl cell suspension was introduced to the upper chamber of each well. The number of cells/well varied in the range of 5,000-10,000 in different experiments. The device loaded with cells was incubated at 37° C. for 4-5 hours. The filter was then removed and the non-migrating cells on its upper part were carefully wiped off with a damp cotton swab. The filter was fixed in methanol and stained with Accustain (modified Wright stain solution Sigma Diagnostics: St. Lois, Mo.). Cells that crossed or were retained within the filter were counted microscopically at low magnification so that the viewing field corresponded to the whole area of each well. Each experimental variant was performed in duplicated or triplicates and the data from, three successful experiments were normalized to the values of the positive control and averaged.
The chemotactic response of BAEC to a soluble gradient of […], the most haptotactic of the peptides studied was as follows. The results can be seen in FIG. 6. […] A similar, though more moderate, chemotaxis response to Cβ (SEQ ID NO:1) was obtained with HF.

[8] = system: HF; assay: Chemotaxis, micro-Boyden chamber assay; format: cell-based, human; conditions: compared with BAEC
Protocol: as §8
The chemotactic response of BAEC to a soluble gradient of Cα (SEQ ID NO:1), the most haptotactic of the peptides studied was as follows. […]

[9] = system: human fibroblasts (HF); assay: Uptake of FITC-peptides by fluorescence microscopy; format: cell-based; design: binding and internalization of dissolved FITC-peptide, fluorescent microscopy: dose or concentration left out as unconfirmed
Protocol: (§9) The cells examined were grown in 6-well plates on cover slips to reach near confluence. At the time of examination, the cover slips were inverted and put on a microscope slide supported by 2 thin spacers so that a thin gap (˜2 mm) was left between the cells on the coverslip and the slide. This was filled with culture medium. […] At different time points, medium was replaced with fresh medium and the fluorescence was viewed and photographed, using an Olympus fluorescent microscope system.
(§10) Accumulation of the FITC-peptide in the cytoplasm and around the nucleus was clearly observed. […] After a longer exposure of more than 1 hour or with fixed cells, accumulation of the FITC-peptide in the cytoplasm and around the nucleus was clearly observed (data not shown). In most cases, the fluorescence became concentrated in discrete cytoplasmic vesicles.

[10] = system: EC (BAEC); assay: Uptake of FITC-peptides by fluorescence microscopy; format: cell-based, bovine; conditions: 100 μg/ml, 30 min and 60 min
Protocol: as §9, §10

[11] = system: human fibroblasts; conditions: isolated constituent chains of fibrinogen; Gray et al. 1993; cited from earlier work

| Molecule | cell binding / haptotactic response to SB-ligand, in words [1] | haptotactic response / cell binding to SB-ligand, in words [2] | proliferative response of HF (MTS proliferation assay) [3] | binding/uptake of FITC-labeled peptide by FACS, in words [4] | binding/uptake of FITC-labeled peptide by FACS, in words [5] | effect of unlabeled peptide on uptake of Cβ-FITC (competition) [6] | chemotactic response relative to negative control of 1% BSA serum-free medium ([7]; BAEC) [times] | chemotactic response of BAEC, in words ([7]; soluble gradient, conditioned medium = 100% chemotaxis) | chemotaxis response of HF, in words [8] | uptake of FITC-peptide by fluoro-microscopy ([9]; 10 μM, human fibroblasts) | binding and internalization of dissolved FITC-peptide, fluorescent microscopy ([9]; HF, 30 min and 60 min) | binding and internalization of dissolved FITC-peptide, fluorescent microscopy [10] | stimulation of fibroblast proliferation above controls [11] |
| --- | --- | --- | --- | --- | --- | --- | --- | --- | --- | --- | --- | --- | --- |
| KGSWYSMRKMSMKIRPFFPQQ (Equivalent to the c-terminus of fibrinogen beta-chain) [Cβ, haptotactic peptide homologous to the carboxy terminus of the fibrinogen β chain, β 441-461] | greatest haptotactic response | highly haptotactic; also recorded: significant haptotactic responses | none of these peptides stimulated or inhibited proliferation | higher than that of CαE; also recorded: clearly bound to cells | higher than that of CαE | increased the level of total Cβ | 3 | highly significant chemotaxis | more moderate | – | – | – | – |
| FITC-CαE: FITC-labeled peptide CαE (SEQ ID NO:3) (RGADYSLRAVRMKIRPLVTQ; not fully specified (N-terminus); also: FITC label, position not given here) | – | – | – | taken up by cells | – | – | – | – | – | uptake | binding and internalization | binding and internalization | – |
| B1 | – | – | – | – | – | – | – | – | – | – | – | – | no effect |
